Assay results as given in US11919887B2, “Substituted tetrahydrofurans as modulators of sodium channels” (Vertex Pharmaceuticals Incorporated, priority 2019, dated 2024).
Like-named read-outs stand apart in the source and are kept apart here.

Biological target: human Nav 1.8 (Homo sapiens, UniProt Q9Y5Y9)
Assay: E-VIPR assay detecting and measuring Nav inhibition (HEK cells expressing truncated human Nav 1.8)
Format: cell-based
Description: Sodium ion channels are voltage-dependent proteins that can be activated by inducing membrane voltage changes by applying electric fields. The electrical stimulation instrument and methods of use, referred to as E-VIPR, are described in International Publication No. WO 2002/008748 A3 and C.-J. Huang et al. Characterization of voltage-gated sodium channel blockers by electrical stimulation and fluorescence detection of membrane potential, 24 Nature Biotech. 439-46 (2006), both of which are incorporated by reference in their entirety. The instrument comprises a microtiter plate handler, an optical system for exciting the coumarin dye while simultaneously recording the coumarin and oxonol emissions, a waveform generator, a current- or voltage-controlled amplifier, and parallel electrode pairs that are inserted into assay plate wells. Under integrated computer control, this instrument passes user-programmed electrical stimulus protocols to cells within the wells of the microtiter plate.
16-20 hours prior to running the assay on E-VIPR, HEK cells expressing a truncated form of human Nav 1.8 with full channel activity were seeded into microtiter 384-well plates, pre-coated with matrigel, at a density of 25,000 cells per well. 2.5-5% KIR2.1 Bacmam virus was added to the final cell suspension before seeding into cell plates. HEK cells were grown in Dulbecco's Modified Eagle's Medium (DMEM) supplemented with 10% FBS (Fetal Bovine Serum, qualified; Sigma #F4135), 1% NEAA (Non-Essential Amino Acids, Gibco #11140), 1% HEPES (Gibco #15630), 1% Pen-Strep (Penicillin-Streptomycin; Gibco #15140) and 5 μg/ml Blasticidin (Gibco #R210-01). Cells were expanded in vented cap cell culture flasks, with 90-95% humidity and 5% CO2.
Human Serum (HS, Millipore #S1P1-01KL, or Sigma SLBR5469V and SLBR5470V as a 50%/50% mixture, for 25% assay final concentration)
Bath1 Buffer: • Sodium Chloride 160 mM (9.35 g/L), Potassium Chloride, 4.5 mM (0.335 g/L), Glucose 10 mM (1.8 g/L), Magnesium Chloride (Anhydrous) 1 mM (0.095 g/L), Calcium Chloride 2 mM (0.222 g/L), HEPES 10 mM (2.38 g/L) in water.
Na/TMA Cl Bath1 Buffer: • Sodium Chloride 96 mM (5.61 g/L), Potassium Chloride 4.5 mM (0.335 g/L), Tetramethylammonium (TMA)-Cl 64 mM (7.01 g/L), Glucose 10 mM (1.8 g/L), Magnesium Chloride (Anhydrous) 1 mM (0.095 g/L), Calcium Chloride 2 mM (0.222 g/L) HEPES 10 mM (2.38 g/L) in water.
Hexyl Dye Solution (2× concentration): • Bath1 Buffer containing 0.5% β-cyclodextrin (made fresh prior to each use, Sigma #C4767), 8 μM CC2-DMPE and 2 μM DiSBAC6(3). The solution was made by adding 10% Pluronic F127 stock equal to combined volumes of CC2-DMPE and DiSBAC6(3). The order of preparation was first mix Pluronic and CC2-DMPE, then add DiSBAC6(3), then while vortexing add Bath1/β-Cyclodextrin.
Compound Loading Buffer (2×concentration): Na/TMA Cl Bath1 Buffer containing HS (omitted in experiments run in the absence of human serum (HS)) 50%, VABSC-1 1 mM, BSA 0.2 mg/ml (in Bath-1), KCl 9 mM, DMSO 0.75%.
Assay Protocol (7 Key Steps): • 1) To reach the final concentration in each well, 400 nL of each compound was pre-spotted (in neat DMSO) into polypropylene compound plates at 250×desired final concentration from an intermediate stock concentration of 0.075 mM, in an 11 point dose response, 3-fold dilution, resulting in a top dose of 300 nM final concentration in the cell plate. Vehicle control (neat DMSO), and positive control (an established Nav1.8 inhibitor, 25 μM final in assay in DMSO) were added manually to the outermost columns of each plate respectively. The compound plate was backfilled with 45 μL per well of Compound Loading Buffer resulting in a 250 fold dilution of compound following a 1:1 transfer of compound into the cell plate (see Step 6). Final DMSO concentration for all wells in the assay was 0.625% (0.75% DMSO was supplemented to the Compound Loading Buffer for a final DMSO concentration of 0.625%). […]

[1] = in the Presence of Human Serum in the E-VIPR Assay
[2] = in the Presence of Human Serum in the E-VIPR Assay, read-out: IC50

human Nav 1.8, sequence (Q9Y5Y9 whole entry, looked up, the tested form may be a part): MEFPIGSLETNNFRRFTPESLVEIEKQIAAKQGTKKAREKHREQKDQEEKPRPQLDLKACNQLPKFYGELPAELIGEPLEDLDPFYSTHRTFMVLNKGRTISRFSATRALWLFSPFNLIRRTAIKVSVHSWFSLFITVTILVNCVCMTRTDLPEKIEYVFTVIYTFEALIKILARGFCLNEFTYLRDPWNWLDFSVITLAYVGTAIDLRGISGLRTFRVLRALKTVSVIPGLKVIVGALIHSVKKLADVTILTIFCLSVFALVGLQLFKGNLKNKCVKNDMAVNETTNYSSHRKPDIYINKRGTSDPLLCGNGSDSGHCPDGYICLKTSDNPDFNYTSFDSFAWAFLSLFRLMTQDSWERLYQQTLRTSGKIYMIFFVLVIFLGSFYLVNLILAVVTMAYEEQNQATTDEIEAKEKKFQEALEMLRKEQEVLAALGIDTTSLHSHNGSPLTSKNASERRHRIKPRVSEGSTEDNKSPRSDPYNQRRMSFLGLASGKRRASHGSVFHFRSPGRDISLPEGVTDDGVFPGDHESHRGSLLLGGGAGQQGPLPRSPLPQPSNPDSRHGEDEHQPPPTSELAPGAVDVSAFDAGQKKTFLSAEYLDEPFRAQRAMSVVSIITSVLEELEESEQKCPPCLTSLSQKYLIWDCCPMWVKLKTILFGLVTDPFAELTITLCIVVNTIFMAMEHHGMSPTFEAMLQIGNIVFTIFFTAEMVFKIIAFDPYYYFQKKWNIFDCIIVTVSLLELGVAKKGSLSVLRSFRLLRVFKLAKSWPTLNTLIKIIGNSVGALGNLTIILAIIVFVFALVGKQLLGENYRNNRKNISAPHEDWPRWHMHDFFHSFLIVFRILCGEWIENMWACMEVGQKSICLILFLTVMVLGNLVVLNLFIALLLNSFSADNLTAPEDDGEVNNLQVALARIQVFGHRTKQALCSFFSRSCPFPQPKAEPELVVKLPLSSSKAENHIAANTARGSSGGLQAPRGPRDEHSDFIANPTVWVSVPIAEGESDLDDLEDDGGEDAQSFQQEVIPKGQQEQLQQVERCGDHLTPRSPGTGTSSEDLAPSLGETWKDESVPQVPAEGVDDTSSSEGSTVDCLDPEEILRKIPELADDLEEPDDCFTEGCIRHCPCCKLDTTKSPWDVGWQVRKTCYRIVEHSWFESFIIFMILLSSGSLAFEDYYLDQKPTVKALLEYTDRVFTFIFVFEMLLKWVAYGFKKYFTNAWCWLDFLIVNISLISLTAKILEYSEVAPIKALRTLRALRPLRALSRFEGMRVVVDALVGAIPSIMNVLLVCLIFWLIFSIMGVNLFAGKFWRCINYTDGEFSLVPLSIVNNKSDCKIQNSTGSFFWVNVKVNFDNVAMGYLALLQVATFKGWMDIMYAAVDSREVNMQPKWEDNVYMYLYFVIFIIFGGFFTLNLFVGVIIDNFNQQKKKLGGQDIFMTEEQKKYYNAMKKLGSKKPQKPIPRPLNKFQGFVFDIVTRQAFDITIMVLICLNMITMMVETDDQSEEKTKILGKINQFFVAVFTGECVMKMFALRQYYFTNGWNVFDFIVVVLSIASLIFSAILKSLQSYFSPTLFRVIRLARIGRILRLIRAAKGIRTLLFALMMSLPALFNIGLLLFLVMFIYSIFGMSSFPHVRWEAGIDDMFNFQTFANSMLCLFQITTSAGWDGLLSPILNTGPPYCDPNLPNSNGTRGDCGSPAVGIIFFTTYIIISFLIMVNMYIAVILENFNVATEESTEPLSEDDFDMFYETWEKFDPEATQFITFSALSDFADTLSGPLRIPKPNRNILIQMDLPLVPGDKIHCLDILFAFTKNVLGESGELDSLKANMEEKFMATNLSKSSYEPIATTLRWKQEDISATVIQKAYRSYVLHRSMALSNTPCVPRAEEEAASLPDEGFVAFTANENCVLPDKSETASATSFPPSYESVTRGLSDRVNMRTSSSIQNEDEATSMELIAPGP

COc1c([C@@H]2[C@@H](C(=O)Nc3ccnc(C(N)=O)c3)O[C@@](C)(C(F)(F)F)[C@@H]2C)ccc(F)c1F (racemic) [Compound 33, rac-(2S,3R,4R,5R)-4-[[3-(3,4-difluoro-2-methoxy-phenyl)-4,5-dimethyl-5-(trifluoromethyl)tetrahydrofuran-2-carbonyl]amino]pyridine-2-carboxamide]
IC50 [1]: 100 to 1000 nM

COc1c([C@@H]2[C@@H](C(=O)Nc3ccnc(C(N)=O)c3)O[C@@](C)(C(F)(F)F)[C@H]2C)ccc(F)c1F (racemic) [Compound 34, rac-(2S,3R,4S,5R)-4-[[3-(3,4-difluoro-2-methoxy-phenyl)-4,5-dimethyl-5-(trifluoromethyl)tetrahydrofuran-2-carbonyl]amino]pyridine-2-carboxamide]
IC50 [1]: > 1000 nM

COc1c([C@@H]2[C@@H](C)[C@](C)(C(F)(F)F)O[C@H]2C(=O)Nc2ccnc(C(N)=O)c2)ccc(F)c1F (racemic) [Compound 35, rac-(2R,3S,4R,5R)-4-[[3-(3,4-difluoro-2-methoxy-phenyl)-4,5-dimethyl-5-(trifluoromethyl)tetrahydrofuran-2-carbonyl]amino]pyridine-2-carboxamide]
IC50 [1]: 100 to 1000 nM

COc1cccc(F)c1[C@@H]1C[C@](C)(C(F)(F)F)O[C@H]1C(=O)Nc1ccnc(C(N)=O)c1 (racemic) [Compound 79, rac-(2R,3S,5R)-4-[[3-(2-fluoro-6-methoxy-phenyl)-5-methyl-5-(trifluoromethyl)tetrahydrofuran-2-carbonyl]amino]pyridine-2-carboxamide]
IC50 [2]: > 1000 nM

COc1c([C@H]2[C@@H](C(=O)Nc3ccnc(C(N)=O)c3)OC(C)(C)[C@@H]2C)ccc(F)c1F (racemic) [Compound 100, rac-(2S,3S,4R)-4-[[3-(3,4-difluoro-2-methoxy-phenyl)-4,5,5-trimethyl-tetrahydrofuran-2-carbonyl]amino]pyridine-2-carboxamide]
IC50 [2]: > 1000 nM

C[C@H]1[C@@H](c2ccc(F)c(F)c2OC(F)F)[C@H](C(=O)Nc2ccnc(C(N)=O)c2)O[C@@]1(C)C(F)(F)F (racemic) [Compound 115, rac-(2R,3S,4S,5R)-4-[[3-[2-(difluoromethoxy)-3,4-difluoro-phenyl]-4,5-dimethyl-5-(trifluoromethyl)tetrahydrofuran-2-carbonyl]amino]pyridine-2-carboxamide]
IC50 [2]: < 10 nM

CC[C@H]1[C@@H](c2ccc(F)c(F)c2OC)[C@H](C(=O)Nc2ccnc(C(N)=O)c2)O[C@@]1(C)C(F)(F)F (racemic) [Compound 116, rac-(2R,3S,4S,5R)-4-[[3-(3,4-difluoro-2-methoxy-phenyl)-4-ethyl-5-methyl-5-(trifluoromethyl)tetrahydrofuran-2-carbonyl]amino]pyridine-2-carboxamide]
IC50 [2]: < 10 nM

C[C@@H]1[C@H](c2ccc(F)cc2OC(F)F)[C@@H](C(=O)Nc2ccnc(C(N)=O)c2)O[C@@]1(C)C(F)(F)F (racemic) [compound 28]
IC50 [2]: 10 to 100 nM

COc1cc(C(F)(F)F)ncc1[C@H]1[C@H](C(=O)Nc2ccnc(C(N)=O)c2)O[C@@](C)(C(F)(F)F)[C@H]1C (racemic) [compound 139]
IC50 (in the Absence of Human Serum in the E-VIPR Assay, read-out: IC50): > 1000 nM

COc1c([C@H]2C[C@@](C)(C(F)(F)F)O[C@@H]2C(=O)Nc2ccnc(C(N)=O)c2)ccc(F)c1Cl (relative stereo) [Compound 20, rel-(2S,3R,5S)-4-[[3-(3-chloro-4-fluoro-2-methoxy-phenyl)-5-methyl-5-(trifluoromethyl)tetrahydrofuran-2-carbonyl]amino]pyridine-2-carboxamide]
IC50 [2]: > 1000 nM

COc1c([C@H]2C[C@@](C)(C(F)(F)F)O[C@@H]2C(=O)Nc2ccnc(C(N)=O)c2)ccc(F)c1Cl (relative stereo) [Compound 22, rel-(2R,3S,5R)-4-[[3-(3-chloro-4-fluoro-2-methoxy-phenyl)-5-methyl-5-(trifluoromethyl)tetrahydrofuran-2-carbonyl]amino]pyridine-2-carboxamide]
IC50 [2]: 10 to 100 nM

COc1c([C@@H]2[C@H](C)[C@H](C(F)(F)F)O[C@H]2C(=O)Nc2ccnc(C(N)=O)c2)ccc(F)c1F (relative stereo) [Compound 24, rel-(2R,3S,4S,5R)-4-[[3-(3,4-difluoro-2-methoxy-phenyl)-4-methyl-5-(trifluoromethyl)tetrahydrofuran-2-carbonyl]amino]pyridine-2-carboxamide]
IC50 [2]: > 1000 nM

COc1c([C@@H]2[C@H](C)[C@H](C(F)(F)F)O[C@H]2C(=O)Nc2ccnc(C(N)=O)c2)ccc(F)c1F (relative stereo) [Compound 25, rel-(2S,3R,4R,5S)-4-[[3-(3,4-difluoro-2-methoxy-phenyl)-4-methyl-5-(trifluoromethyl)tetrahydrofuran-2-carbonyl]amino]pyridine-2-carboxamide]
IC50 [2]: < 10 nM

COc1c([C@@H]2C[C@](C)(C(F)(F)F)O[C@H]2C(=O)Nc2cc[n+]([O-])c(C(N)=O)c2)ccc(F)c1F (relative stereo) [Compound 54, rel-(2R,3S,5R)-4-[[3-(3,4-difluoro-2-methoxy-phenyl)-5-methyl-5-(trifluoromethyl)tetrahydrofuran-2-carbonyl]amino]-1-oxido-pyridin-1-ium-2-carboxamide]
IC50 [2]: 100 to 1000 nM

COc1cc(F)ccc1[C@@H]1C[C@](C)(C(F)(F)F)O[C@@H]1C(=O)Nc1ccnc(C(N)=O)c1 (relative stereo) [Compound 70, rel-(2S,3S,5R)-4-[[3-(4-fluoro-2-methoxy-phenyl)-5-methyl-5-(trifluoromethyl)tetrahydrofuran-2-carbonyl]amino]pyridine-2-carboxamide]
IC50 [2]: > 1000 nM

COc1cc(F)ccc1[C@H]1[C@H](C(=O)Nc2ccnc(C(N)=O)c2)O[C@@](C)(C(F)(F)F)[C@H]1C (single isomer, unassigned) [Compound 3a]
IC50 [2]: > 1000 nM

COc1cc(F)ccc1[C@@H]1[C@@H](C(=O)Nc2ccnc(C(N)=O)c2)O[C@](C)(C(F)(F)F)[C@@H]1C (single isomer, unassigned) [Compound 3b]
IC50 [2]: < 10 nM

C[C@H]1[C@@H](c2ccc(F)c(F)c2OC(F)F)[C@H](C(=O)Nc2ccc(F)c(C(N)=O)c2)O[C@@]1(C)C(F)(F)F (single isomer, unassigned) [Compound 14]
IC50 [2]: > 1000 nM

C[C@H]1[C@@H](c2ccc(F)c(F)c2OC(F)F)[C@H](C(=O)Nc2ccc(F)c(C(N)=O)c2)O[C@@]1(C)C(F)(F)F (single isomer, unassigned) [Compound 15]
IC50 [2]: < 10 nM

CNC(=O)c1cc(NC(=O)[C@H]2O[C@](C)(C(F)(F)F)[C@H](C)[C@@H]2c2ccc(F)cc2OC(F)F)ccn1 (single isomer, unassigned) [Compound 29]
IC50 [2]: > 1000 nM

CNC(=O)c1cc(NC(=O)[C@@H]2O[C@@](C)(C(F)(F)F)[C@@H](C)[C@H]2c2ccc(F)cc2OC(F)F)ccn1 (single isomer, unassigned) [Compound 30]
IC50 [2]: 100 to 1000 nM

C[C@@H]1[C@H](c2ccc(F)cc2OC(F)F)[C@@H](C(=O)Nc2ccc(F)c(C(N)=O)c2)O[C@]1(C)C(F)(F)F (single isomer, unassigned) [Compound 31]
IC50 [2]: > 1000 nM

C[C@H]1[C@@H](c2ccc(F)cc2OC(F)F)[C@H](C(=O)Nc2ccc(F)c(C(N)=O)c2)O[C@@]1(C)C(F)(F)F (single isomer, unassigned) [Compound 32]
IC50 [2]: < 10 nM
